Experimental data: PubChem BioAssay (NCI)
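How tested: cells in 96-well plates exposed to compound for 48 hours at five concentrations. GI50 is the concentration that inhibits growth by half. TGI denotes the concentration required for complete inhibition of growth.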

Tests used:
Assay in all cases: growth of human tumour cells (NCI), 48 h
MDA-MB-435 = system: MDA-MB-435
A498 renal = system: A498 renal
HL-60(TB) leukemia = system: HL-60(TB) leukemia
M14 melanoma = system: M14 melanoma
HOP-92 NSCLC = system: HOP-92 NSCLC
SK-OV-3 ovarian = system: SK-OV-3 ovarian
UACC-257 melanoma = system: UACC-257 melanoma
MCF7 breast = system: MCF7 breast

Work on `COc1ccc(C=Nc2c(C(=O)Nc3cccc(Cl)c3C)sc3nc(C)c(C(=O)/C=C/c4ccc(OC)cc4)cc23)cc1` yielded a GI50 (MDA-MB-435) of 0.103 µM, a TGI (MDA-MB-435) of 0.227 µM and a GI50 (A498 renal) of 0.196 µM. For the same molecule, the TGI (A498 renal) was 2.49 µM, the GI50 (HL-60(TB) leukemia) was 1.27 µM and the TGI (HL-60(TB) leukemia) was over 22 µM. The GI50 (M14 melanoma) was 0.201 µM, the TGI (M14 melanoma) was 1.57 µM and the GI50 (HOP-92 NSCLC) was 0.59 µM. It also gave a TGI (HOP-92 NSCLC) of 7.12 µM, a GI50 (SK-OV-3 ovarian) of 0.958 µM and a TGI (SK-OV-3 ovarian) of over 50 µM. For the same molecule, the GI50 (UACC-257 melanoma) was 2.88 µM, the TGI (UACC-257 melanoma) was over 50 µM and the GI50 (MCF7 breast) was 0.293 µM. The TGI (MCF7 breast) was over 50 µM.
`Cc1c(-c2ccc(C3CCCCC3)cc2)nc2ccc(F)cc2c1C(=O)O` was tested, and the GI50 (MDA-MB-435) was 0.322 µM, the TGI (MDA-MB-435) was over 100 µM and the GI50 (A498 renal) was over 36.6 µM. For the same molecule, the TGI (A498 renal) was over 100 µM, the GI50 (HL-60(TB) leukemia) was 0.335 µM and the TGI (HL-60(TB) leukemia) was over 100 µM. It also gave a GI50 (M14 melanoma) of 0.788 µM, a TGI (M14 melanoma) of over 100 µM and a GI50 (HOP-92 NSCLC) of 15 µM. For the same molecule, the TGI (HOP-92 NSCLC) was 97.5 µM, the GI50 (SK-OV-3 ovarian) was over 100 µM and the TGI (SK-OV-3 ovarian) was over 100 µM. It also gave a GI50 (UACC-257 melanoma) of 4.79 µM, a TGI (UACC-257 melanoma) of over 100 µM and a GI50 (MCF7 breast) of 0.168 µM. It also gave a TGI (MCF7 breast) of over 100 µM.
For `C[C@H]1/C(=C/C(=O)OCCN(C)C)CC[C@H]2[C@H]1C(=O)C[C@H]1C(C)(C)[C@@H](O)CC[C@]21C`, the TGI (MDA-MB-435) was over 100 µM, the TGI (A498 renal) was over 100 µM and the TGI (HL-60(TB) leukemia) was over 100 µM. The TGI (M14 melanoma) was over 100 µM, the TGI (HOP-92 NSCLC) was over 100 µM and the TGI (SK-OV-3 ovarian) was over 100 µM. It also gave a TGI (UACC-257 melanoma) of over 100 µM and a TGI (MCF7 breast) of over 100 µM.
For `COc1cc2c3cc1Oc1c(OC)c(OC)cc4c1C(=NCC4)Cc1ccc(cc1)Oc1cc(ccc1O)C[C@H]3N(C)CC2`, the TGI (MDA-MB-435) was 37.3 µM, the TGI (A498 renal) was 36.7 µM and the TGI (HL-60(TB) leukemia) was 96.5 µM. It also gave a TGI (M14 melanoma) of 29.8 µM, a TGI (HOP-92 NSCLC) of 29.1 µM and a TGI (SK-OV-3 ovarian) of over 100 µM. The TGI (UACC-257 melanoma) was 29.6 µM and the TGI (MCF7 breast) was 70 µM.
`O=C(/C=C/c1ccc(Cl)cc1)c1ccccc(=O)c1O` was tested, and the TGI (MDA-MB-435) was 20.8 µM, the TGI (A498 renal) was 36 µM and the TGI (HL-60(TB) leukemia) was 2.04 µM. It also gave a TGI (M14 melanoma) of 20.1 µM, a TGI (HOP-92 NSCLC) of 17 µM and a TGI (SK-OV-3 ovarian) of 16.6 µM. The TGI (UACC-257 melanoma) was 14.6 µM and the TGI (MCF7 breast) was 19.8 µM.
For `COC1C(O)CC(OC2CC(OC3CC(O[C@@H]4C(=O)c5c(cc6cc(OC7CC(OC8CC(O)C(O)C(C)O8)C(O)C(C)O7)c(C)c(O)c6c5O)CC4[C@H](OC)C(=O)O)OC(C)C3O)OC(C)C2O)OC1C` (stereo partly specified), the GI50 (MDA-MB-435) was 2.56 µM, the TGI (MDA-MB-435) was 24.7 µM and the GI50 (A498 renal) was 0.725 µM. For the same molecule, the TGI (A498 renal) was 2.6 µM, the GI50 (HL-60(TB) leukemia) was 5.53 µM and the TGI (HL-60(TB) leukemia) was over 33.3 µM. For the same molecule, the GI50 (M14 melanoma) was 3.14 µM, the TGI (M14 melanoma) was over 33.3 µM and the GI50 (HOP-92 NSCLC) was 4.4 µM. The TGI (HOP-92 NSCLC) was over 33.3 µM, the GI50 (SK-OV-3 ovarian) was 2.24 µM and the TGI (SK-OV-3 ovarian) was over 33.3 µM. It also gave a GI50 (UACC-257 melanoma) of 1.94 µM, a TGI (UACC-257 melanoma) of 13.5 µM and a GI50 (MCF7 breast) of 0.928 µM. The TGI (MCF7 breast) was over 33.3 µM.
`CC(=O)/C(=C/c1ccccc1)C(=O)CC(C)C` showed a GI50 (MDA-MB-435) of 2.44 µM, a TGI (MDA-MB-435) of 7.72 µM and a GI50 (A498 renal) of 19.4 µM. For the same molecule, the TGI (A498 renal) was 38.8 µM, the GI50 (HL-60(TB) leukemia) was 22.1 µM and the TGI (HL-60(TB) leukemia) was 90.2 µM. For the same molecule, the GI50 (M14 melanoma) was 10.8 µM, the TGI (M14 melanoma) was 24.3 µM and the GI50 (HOP-92 NSCLC) was 32.7 µM. The TGI (HOP-92 NSCLC) was over 100 µM, the GI50 (SK-OV-3 ovarian) was 31.8 µM and the TGI (SK-OV-3 ovarian) was 99 µM. The GI50 (UACC-257 melanoma) was 13.9 µM, the TGI (UACC-257 melanoma) was 28.9 µM and the GI50 (MCF7 breast) was 4.5 µM. It also gave a TGI (MCF7 breast) of 18.5 µM.
In the case of `CC(C)N1CCN(c2ccncc2S(=O)(=O)N2CCCCC2)CC1`, the TGI (MDA-MB-435) is reported as over 100 µM, the TGI (A498 renal) is reported as over 100 µM and the TGI (HL-60(TB) leukemia) is reported as over 100 µM. It also gave a TGI (M14 melanoma) of over 100 µM, a TGI (HOP-92 NSCLC) of over 100 µM and a TGI (SK-OV-3 ovarian) of over 100 µM. It also gave a TGI (UACC-257 melanoma) of over 100 µM and a TGI (MCF7 breast) of over 100 µM.
`CO[C@H]1C=CO[C@@]2(C)Oc3c(C)c(O)c4c(O)c(c(CN5CCN(C)CC5)c(O)c4c3C2=O)NC(=O)/C(C)=C\C=C[C@H](C)[C@H](O)C(C)[C@@H](O)C(C)[C@H](OC(C)=O)[C@@H]1C` (stereo partly specified) was tested, and the TGI (MDA-MB-435) was over 60.8 µM, the TGI (A498 renal) was over 100 µM and the TGI (HL-60(TB) leukemia) was 83.7 µM. The TGI (M14 melanoma) was over 75 µM, the TGI (HOP-92 NSCLC) was over 100 µM and the TGI (SK-OV-3 ovarian) was over 100 µM. The TGI (UACC-257 melanoma) was over 72.8 µM and the TGI (MCF7 breast) was 33.7 µM.
`CCCCCCCCCCCCCCCCCc1nccn1CCOCCO` gave a GI50 (MDA-MB-435) of 5.85 µg/mL, a TGI (MDA-MB-435) of 11.7 µg/mL and a GI50 (A498 renal) of 4.82 µg/mL. For the same molecule, the TGI (A498 renal) was 11 µg/mL, the GI50 (HL-60(TB) leukemia) was 7.56 µg/mL and the TGI (HL-60(TB) leukemia) was 15.2 µg/mL. For the same molecule, the GI50 (M14 melanoma) was 6.69 µg/mL, the TGI (M14 melanoma) was 13 µg/mL and the GI50 (HOP-92 NSCLC) was 2.33 µg/mL. It also gave a TGI (HOP-92 NSCLC) of 7.98 µg/mL, a GI50 (SK-OV-3 ovarian) of 5.67 µg/mL and a TGI (SK-OV-3 ovarian) of 10.8 µg/mL. For the same molecule, the GI50 (UACC-257 melanoma) was 5.49 µg/mL, the TGI (UACC-257 melanoma) was 11 µg/mL and the GI50 (MCF7 breast) was 5.65 µg/mL. The TGI (MCF7 breast) was 11.4 µg/mL.
Molecule `O=C1/C(=C/c2ccccc2)CN(C(=O)C(Cl)Cl)C/C1=C\c1ccccc1` has a GI50 (MDA-MB-435) of 0.312 µM, a TGI (MDA-MB-435) of 1.03 µM and a GI50 (A498 renal) of 1.48 µM. It also gave a TGI (A498 renal) of 3 µM, a GI50 (HL-60(TB) leukemia) of 0.36 µM and a TGI (HL-60(TB) leukemia) of 2.04 µM. For the same molecule, the GI50 (M14 melanoma) was 0.622 µM, the TGI (M14 melanoma) was 2.15 µM and the GI50 (HOP-92 NSCLC) was 1.26 µM. For the same molecule, the TGI (HOP-92 NSCLC) was 3.09 µM, the GI50 (SK-OV-3 ovarian) was 1.77 µM and the TGI (SK-OV-3 ovarian) was 3.23 µM. For the same molecule, the GI50 (UACC-257 melanoma) was 1.42 µM, the TGI (UACC-257 melanoma) was 3.13 µM and the GI50 (MCF7 breast) was 0.113 µM. For the same molecule, the TGI (MCF7 breast) was 0.886 µM.
`O=c1[nH]c2ccccc2c2nc3ccccc3n12` gave a TGI (MDA-MB-435) of over 100 µM, a TGI (A498 renal) of over 100 µM and a TGI (HL-60(TB) leukemia) of over 100 µM. For the same molecule, the TGI (M14 melanoma) was over 100 µM, the TGI (HOP-92 NSCLC) was over 100 µM and the TGI (SK-OV-3 ovarian) was 49.7 µM. The TGI (UACC-257 melanoma) was over 100 µM and the TGI (MCF7 breast) was over 100 µM.
`O=C1CSC(=S)N1c1ccco1` gave a TGI (MDA-MB-435) of 75.6 µM, a TGI (A498 renal) of over 100 µM and a TGI (HL-60(TB) leukemia) of over 100 µM. The TGI (M14 melanoma) was over 100 µM, the TGI (HOP-92 NSCLC) was over 100 µM and the TGI (SK-OV-3 ovarian) was over 100 µM. The TGI (UACC-257 melanoma) was over 100 µM and the TGI (MCF7 breast) was over 100 µM.
Work on `COc1cc2c(c(OC)c1OC)-c1ccc(O)cc1[C@@H](NC(C)=O)CC2` yielded a GI50 (MDA-MB-435) of 0.0206 µM, a TGI (MDA-MB-435) of 0.0463 µM and a GI50 (A498 renal) of 0.0269 µM. The TGI (A498 renal) was 0.0956 µM, the GI50 (HL-60(TB) leukemia) was 0.0227 µM and the TGI (HL-60(TB) leukemia) was 0.0645 µM. For the same molecule, the GI50 (M14 melanoma) was 0.033 µM, the TGI (HOP-92 NSCLC) was over 100 µM and the GI50 (SK-OV-3 ovarian) was 0.0377 µM. It also gave a TGI (SK-OV-3 ovarian) of over 100 µM, a GI50 (UACC-257 melanoma) of over 68.3 µM and a TGI (UACC-257 melanoma) of over 100 µM. The GI50 (MCF7 breast) was 0.0376 µM and the TGI (MCF7 breast) was over 100 µM.
